# Patent US20230096051A1, “CGRP ANTIGONISTS USEFUL AS TRACER COMPOUNDS FOR POSITRON EMISSION TOMOGRAPHY” (Eli Lilly and Company, priority 2019, published 2023)
# Molecular target: T1, human CGRP receptor heterodimer (Homo sapiens, UniProt O60894+Q16602)
# T1 construct: Human SK-N-MC neuroblastoma cells, endogenously expressing the human CGRP receptor, are expanded in culture flasks; host or cells: P2 membranes of SK-N-MC neuroblastoma cells
# Assay: Competition filtration binding with [3H]BIBN-4096 on SK-N-MC cell membranes
# Conditions: [3H]BIBN-4096 130 pM, mean
# Description: The equilibrium affinity constant (Ki) at the human CGRP receptor heterodimer may be determined using standard competition filtration binding methods with membranes prepared from cultured SK-N-MC neuroblastoma cells (ATCC) and a high-affinity CGRP receptor antagonist.
# Membrane Production: Human SK-N-MC neuroblastoma cells, endogenously expressing the human CGRP receptor, are expanded in culture flasks (Corning, T225) using growth media containing Eagles's Minimum Essential Media (HyClone™) supplemented with 10% heat-inactivated fetal bovine serum (GIBCO®). When cell monolayers achieve a level of 70-80% confluence, they are dissociated from the culture flasks using TrypLE™ cell dissociation media (ThermoFisher Scientific). Dissociated cells are pelleted by centrifugation at 300×g to remove the growth and dissociation media. Centrifuged cell pellets are flash frozen in liquid nitrogen (−320° F.) for 30 sec and stored frozen at −80° C. until the subsequent membrane preparation.
# A membrane preparation P2 pellet (second pellet from centrifugation procedure) is generated from harvested SK-N-MC frozen cultured cell pellets by diluting these cells on ice into 20 mM Tris-HCl buffer, pH 7.4, containing protease inhibitors (Pierce). Suspended cells are Dounce homogenized on ice and centrifuged at low speed (1000×g for 20 min at 4° C.) to remove cellular organelles and debris (P1 pellet). The supernatant, containing the soluble membrane fraction, is collected and subjected to a high speed centrifugation step (25,000×g for 1 hr at 4° C.) to isolate the resultant P2 membrane pellet. […] Protein concentration is determined using the Bradford Protein Assay (ThermoFisher Scientific). […]
# Data Analysis: Bound radioactivity may be counted using a MicroBeta® Trilux Scintillation Counter (PerkinElmer®). […] Relative IC50 values are calculated using a four-parameter logistic curve fitting program (GraphPad Prism v8.3.0). Equilibrium dissociation binding constants (Ki) for the compounds are calculated from the following equation: […]
row,Ki [nM],SMILES
1,0.93,"Cc1cc(N2CC(F)C2)cc(OCc2ccc([C@@H](C)[C@@]3(C)C(=O)NC[C@@H]3CF)cc2)n1 [Example 3, (3R,4R)-3-[(1R)-1-[4-[[4-(3-fluoroazetidin-1-yl)-6-methyl-2-pyridyl]oxymethyl]phenyl]ethyl]-4-(fluoromethyl)-3-methyl-pyrrolidin-2-one]"
2,0.98,"Cc1cc(N2CC(F)C2)cc(OCc2ccc([C@@H](C)[C@@]3(C)C(=O)NC[C@@H]3C)cc2)n1 [Example 2, (3R,4R)-3-[(1R)-1-[4-[[4-(3-fluoroazetidin-1-yl)-6-methyl-2-pyridyl]oxymethyl]phenyl]ethyl]-3,4-dimethyl-pyrrolidin-2-one]"
3,0.35,"Cc1cc(N2CCC2)cc(OCc2ccc([C@@H](C)[C@@]3(C)C(=O)NC[C@@H]3CF)cc2)n1 [Example 1, (3R,4R)-3-[(1R)-1-[4-[[4-(azetidin-1-yl)-6-methyl-2-pyridyl]oxymethyl]phenyl]ethyl]-4-(fluoromethyl)-3-methyl-pyrrolidin-2-one]"
